Laboratory results published in paper PMC9414862, “In Vitro and In Silico Potential Inhibitory Effects of New Biflavonoids from Ochna rhizomatosa on HIV-1 Integrase and Plasmodium falciparum” (Pharmaceutics, 2022).
Like-named read-outs stand apart in the source and are kept apart here.

Assays:
[1] = tested on: Plasmodium falciparum strain NF54 (chloroquine-sensitive), erythrocytic stages; experiment: Antiplasmodial 3H-hypoxanthine incorporation assay; assay type: cell-based; conditions: for IC50: Plasmodium falciparum
Description: The assessment of antiplasmodial activity in vitro was evaluated against the erythrocytic stages of chloroquine-sensitive Plasmodium falciparum strain NF54 using a ^3H-hypoxanthine incorporation assay previously described, of which the […] NF54 strain originated from South Africa, and the standard drug chloroquine was obtained from Sigma-Aldrich (St. Louis, MO, USA). Compounds were dissolved in DMSO at 10 μg/mL and added to parasite cultures incubated in RPMI 1640 medium without hypoxanthine, supplemented with HEPES (5.94 g/L), NaHCO3 (2.1 g/L), neomycin (100 U/mL), Albumax, and washed human red cells A^+ at 2.5% hematocrit (0.3% parasitemia). Serial sample dilutions of […] dilution steps covering a range from 100 to 0.002 μg/mL were prepared. The 96-well plates were incubated in a humidified atmosphere at 37 °C; 4% CO2; 3% O2 and 93% N2. After 48 h, 50 μL of ^3H-hypoxanthine (0.5 μCi) was added to each well.

[2] = biological target: T1, HIV-1 integrase (purified recombinant HIV-1 subtype C IN) (Human immunodeficiency virus type 1 group M subtype C, UniProt Q75002); experiment: HIV-1 Integrase strand transfer inhibition assay; assay type: biochemical
T1 construct: Recombinant HIV-1 subtype CIN was assembled on to the pre-processed donor DNA
Description: The HIV-1 Integrase strand transfer inhibition assay was adapted from previously described methods. […] Following incubation at room temperature for 40 min and a stringent wash step, 5 µg/mL purified recombinant HIV-1 subtype CIN in integrase buffer 1 ([…] to ethanol, 50 µg/mL BSA, pH 7.5) was added to individual wells. […] Recombinant HIV-1 subtype CIN was assembled on to the pre-processed donor DNA through incubation for 45 min at room temperature. Strand transfer reaction was initiated through the addition of 10 µM (final concentration) double-stranded FITC-labelled target DNA (5′-[…]/36-FAM/-3′) annealed to (5′-[…]-/36-FAM/-3′) in integrase buffer 2 (same as buffer 1, except 25 µM MnCl2 was replaced with 2.5 µM MgCl2). After an incubation period of 60 min at 37 °C, the plates were washed using PBS containing 0.05% Tween 20 and 0.01% BSA, followed by the addition of peroxidase-conjugated sheep anti-FITC antibody (Thermo Scientific, Waltham, MA, USA) diluted 1:1000 in the same PBS buffer. Finally, the plates were washed and peroxidase substrate (Sure Blue Reserve™, KPL, Gaithersburg, MD, USA) was added to allow for detection at 620 nm using a Synergy MX (BioTek®) plate reader. Absorbance values were converted to % enzyme activity relative to the readings obtained from the control wells (enzyme without inhibitor).

[3] = chloroquine-sensitive P. falciparum NF54, mean ± SD, '-' in Table 3 = no activity, read-out: NF54: IC50 (antiplasmodial activity)
[4] = mean ± SD; '-' in Table 2 = no inhibition detected
[5] = mean ± SD; '-' in Table 2 = no inhibition detected; read-out: Assembly IC50 (anti-HIV-1 integrase activity)
[6] = chloroquine-sensitive P. falciparum NF54, mean ± SD, '-' in Table 3 = no activity

T1 sequence (Q75002 1152-1439): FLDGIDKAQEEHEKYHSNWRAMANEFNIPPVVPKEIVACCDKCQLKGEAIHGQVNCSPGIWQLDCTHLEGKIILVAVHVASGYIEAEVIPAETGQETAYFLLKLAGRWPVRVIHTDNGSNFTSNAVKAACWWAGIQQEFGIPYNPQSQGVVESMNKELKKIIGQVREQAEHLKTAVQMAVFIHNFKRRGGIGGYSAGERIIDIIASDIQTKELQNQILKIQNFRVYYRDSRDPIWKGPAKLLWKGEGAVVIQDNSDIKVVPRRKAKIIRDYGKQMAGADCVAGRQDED

Row | SMILES | IC50 [1, 3] [µM] | Assembly IC50 (anti-HIV-1 integrase activity) [2, 4] | IC50 ([2]; read-out: Assembly IC50 (anti-HIV-1 integrase activity); mean ± SD; '-' in Table 2 = no inhibition detected) [µM] | IC50 [2, 5] [µM] | IC50 ([1]; NF54, read-out: NF54: IC50 (antiplasmodial activity)) [µM] | NF54: IC50 (antiplasmodial activity) [1, 6] | IC50 ([2]; read-out: Assembly IC50 (anti-HIV-1 integrase activity)) [µM]
1 | COc1ccc(C(c2ccc(O)cc2)[C@@H](C(=O)c2ccc(O)cc2O)c2coc3cc(OC)ccc3c2=O)cc1 (stereo partly drawn) [Compound 3, (R)-3-(1-(2′,4′-dihydroxyphenyl)-3,3-bis(4″-hydroxy-4‴-methoxyphenyl)-1-oxopropan-2-yl)-4 methoxychromenone] | 7.86 ± 5.12 | no inhibition detected | > 20 | – | – | – | –
2 | COc1ccc(C(c2ccc(OC)cc2)[C@@H](C(=O)c2ccc(OC)cc2O)c2coc3cc(OC)ccc3c2=O)cc1 [Compound 2, (R)-3-(1-(2′-hydroxy-4′-methoxyphenyl)-3,3-bis(4″,4‴-dimethoxyphenyl)-1-oxopropan-2-yl)-4-methoxychromenone] | 4.6 ± 6.09 | – | – | > 20 | – | – | –
3 | CCN(CC)CCCC(C)Nc1ccnc2cc(Cl)ccc12 (centres unmarked) [Chloroquine, reference compound] | – | – | – | – | 0.006 ± 0.002 | – | –
4 | COc1cc(-c2coc3cc(O)cc(OC)c3c2=O)ccc1O [Compound 7, 4′,7-dihydroxy-3′,5-dimethoxyisoflavone] | > 190 | – | – | > 20 | – | no activity | –
5 | COc1ccc(C(c2ccc(O)cc2)[C@@H](C(=O)c2ccc(OC)cc2O)c2coc3cc(OC)ccc3c2=O)cc1 (some centres unmarked) [Compound 5, shweinfurthianone B] | 5.11 ± 13.7 | no inhibition detected | – | > 20 | – | – | –
6 | C[C@H]1[C@H](OC(=O)CCC(=O)O)O[C@@H]2O[C@@]3(C)CC[C@H]4[C@H](C)CC[C@@H]1[C@@]24OO3 [Artesumate, reference compound] | 0.002 | – | – | – | – | – | –
7 | O=C(c1ccc(O)cc1O)[C@@H](c1coc2cc(O)ccc2c1=O)C(c1ccc(O)cc1)c1ccc(O)cc1 [Compound 1] | > 190 | – | – | – | – | no activity | 0.047 ± 0.021
8 | COc1ccc(C(c2ccc(O)cc2)[C@@H](C(=O)c2ccc(O)cc2O)c2coc3cc(O)ccc3c2=O)cc1 (some centres unmarked) [Compound 4, schweinfurthianone A] | 8.2 ± 0.93 | no inhibition detected | – | > 20 | – | – | –
9 | O=C(/C=C/c1ccc(O)cc1)c1c(O)cc(O)c2c(C(=O)c3ccc(O)cc3O)c(-c3ccc(O)cc3)oc12 [Compound 6, calodenine B] | > 190 | no inhibition detected | – | > 20 | – | no activity | –
